From patent US20060099712A1, “Correlation of anti-cancer activity of dyes with redox potentials” (Eastman Kodak Company, priority 2004, published 2006) come the findings set out here.

The assay concerns CX-1 Human Colon Carcinoma. Description: Clonogenic dye screening assay, CX-1 cells (IC50). The class given is cell-based. Also noted: CX: unit not given here. The note with it: for CX: CX-1 cells; for CV/CX (selectivity, kill ratio): ratio of IC50 in normal CV-1 line to IC50 in carcinoma CX-1 line; for CX (IC50 in the CX-1 cell line): 3 hrs treatment, colonies after 7-10 days, unit from method b117-118. An excerpt:
CX-1 is a cancerous human colon adenocarcinoma cell line. CV-1 is a non-cancerous control, which is a kidney epithelial cell line from an African green monkey. IC50 is the dye concentration at which 50% of the cells are killed. Selectivity or kill ratio is defined as the ratio of […] at IC50 for both CX-1 and CV-1. A ratio with a high number indicates a high selectivity.
The dyes were screened in two cell lines. CX-1 is a human colon adenocarcinoma cell line. CV-1 is a kidney epithelial cell line from an African green monkey. CV-1 was used as a reference because no normal human epithelial cell line is available for clonogenic assay.
In the initial screen, dyes were examined at six different concentrations to generate a dose response curve. An IC50 value, the concentration at which 50% of the cells are killed, was then calculated. Initially, a dye concentration of 1.0 μg/mL was the highest examined for the CX-1 cell line and 0.005 μg/mL was the lower limit. The corresponding limits on the CV-1 cell line were […].
The screening procedure used a response curve that was determined from eight dye concentrations. The upper and lower limits of CX-1 were 0.32 and 0.0015 μg/mL, respectively, and the corresponding revised limits on CV-1 were 3.2 and 0.025 μg/mL. The screening results were reported by assigning an IC50 value to each dye for the CV-1 and CX-1 cell lines. These values will be referred to herein simply as CV and CX. The most desirable result would be to have a dye that was highly toxic to carcinoma cells but nontoxic to ‘normal’ cells. One measure of this type of selectivity is the ratio of the IC50's in the normal cell line to that in the carcinoma line, CV/CX.
Compounds are screened via an in vitro assay. CV-1 and CX-1 cells are seeded into separate assay plates. The plates are treated with varying concentrations of test compounds, rinsed, and colonies allowed to grow. IC50's are determined and drugs evaluated based on their selectivity and toxicity. Assay Steps: • I. Seeding Cells • II. Weighing • III. Preparation of Solution • IV. Treatment • V. Rinsing and Feeding • VI. Fixing • VII. IC50 Determination I. Seeding Cells
The cells should be seeded 16-30 hours before treatment. The media for CV-1 cells is DME+5% calf serum +5% Nuserum. The media for CX-1 cells is RPMI/DME (50/50)+5% calf serum +5% Nuserum.
(c) number of cells based on 2000 CX-1 cells/well and 1000 CV-1 cells/well. NOTE: Always make enough cell suspension for 1 extra plate to allow for volume loss during transfers.
• (a) For CV-1: 256 ug/ml-256 ul of 1 mg/ml stock +744 ul DMSO • (b) For CX-1: 25.6 ug/ml-100 ul of 256 ug/ml+900 ul DMSO IV. Treatment • 1. Each plate is treated with 4 test compounds, one positive control and one negative control. • 2. Serial dilutions of the compounds are made in the following way:
2 multi-well pipetters are used. One is set for 10 ul and one for 200 ul. Each is equipped with 6 tips spaced such that they fit into the 6 rows of a plate. 390 ul of media is added to the first column of each plate. 10 ul each of 4 compound solutions, a positive and a negative control are taken up and put into the first column of wells. The 200 ul pipetter is then placed in the same wells, pipetted up and down 3 times and two 200 ul aliquots are moved to the next column of wells. This column is pipetted up and down 3 times and 400 ul moved to column 3, etc. The final 400 ul excess from column 8 is discarded.
• 3. Label the plates along the front, each row −1 compound. • 4. Incubate the plates at 37° C. for 3 hrs. V. Rinsing • 1. Prepare several bottles of CX-1 and CV-1 media. • 2. Check for precipitate in first column of each plate and note. • 3. Starting with the plates treated first, rinse several plates at a time by aspirating the treatments and refilling each well with 0.5-1.0 ml of the rinse media. Aspirate and refill 2 more times for a total of 3 rinses. • 4.

The mark [1] stands for this setting: Table XVII, selectivity ratio of IC50 values.

Under “Table XX, thiacarbocyanine nitrogen substituents”, `CSCCN1C(=CC=Cc2sc3ccccc3[n+]2CCSC)Sc2ccccc21` [R1=CCSMe, R2=CCSMe] came in with a CX of 0.015. Under “Table XX, ratio given a value of 1 where dye inactive”, the CV/CX stood at 12.0. For `CC[n+]1c(/C(=C/C=C2\Oc3ccccc3N2C)Sc2ccccc2)sc2ccccc21` [drawing 39|M/E|SPh|H], the “CV/CX (selectivity, kill ratio)” value came out at 3.0. With `CCN1C(=CC=Cc2oc3cc(C)c(Cl)cc3[n+]2CC)Oc2cc(C)c(Cl)cc21` [drawing 45|5-Cl, 6-Me|5-Cl, 6-Me], the “CX (IC50 in the CX-1 cell line)” value was 0.16 mg/L and the “CV/CX (selectivity, kill ratio)” value stood at 12.5.

As for `CN1C(=CC=Cc2[te]c3ccccc3[n+]2C)[Te]c2ccccc21` [Dye B19682], the CX (Table XV, symmetrical dyes) was determined as 0.3. In addition, the CV/CX (Table XV, selectivity ratio of IC50 values) was 16.7.

For the molecule `CCN1/C(=C/C(=C/c2sc3ccccc3[n+]2CC)C(=S)[S-])Sc2ccccc21` [drawing 38|E|H|C(═S)S—|H], the “CX (IC50 in the CX-1 cell line)” value is greater than 0.32 mg/L and the “CV/CX (selectivity, kill ratio)” value is given as less than 8.7. `CCN1/C(=C/C=C/c2sc3c(OC)cccc3[n+]2CC)Sc2c(OC)cccc21` [drawing 41|Et|7-MeO|7-MeO]: the “CV/CX (selectivity, kill ratio)” value is 5.0. `COc1ccc2c3c(ccc2c1)S/C(=C\C=C\c1sc2ccc4cc(OC)ccc4c2[n+]1C)N3C` [drawing 43|M|7-MeO|7-MeO]: the “CX (IC50 in the CX-1 cell line)” value came to 0.09 mg/L and the “CV/CX (selectivity, kill ratio)” value is recorded as 35.5.

On to `CCOC(=O)c1ccc2c(c1)N(CC)/C(=C/C=C/c1oc3ccc(C(=O)OCC)cc3[n+]1CC)O2` [drawing 45|5-CO2Et|5-CO2Et], for which the “CX (IC50 in the CX-1 cell line)” value was “>.32 mg/L” and the “CV/CX (selectivity, kill ratio)” value is 10.0. The matching figures for `O=C(C[n+]1c(/C=C/C=C2/Nc3ccccc3S2)sc2ccccc21)N1CCOCC1` [drawing 36|CC(═O)morpholino|H]: greater than 0.32 mg/L and 10.0.

In the case of `CCC(=Cc1sc2ccccc2[n+]1CC)C=C1Sc2ccccc2N1CC` [drawing 38|E|H|Et|H], the “CV/CX (selectivity, kill ratio)” value was 10.0. Regarding `CCN1C(=CC=Cc2sc3ccc(Br)cc3[n+]2CC)Sc2ccc(Br)cc21` [drawing 41|Et|5-Br|5-Br], the “CX (IC50 in the CX-1 cell line)” value is 0.04 mg/L and the “CV/CX (selectivity, kill ratio)” value was 35.0. For `CN1/C(=C/C=C/c2[te]c3ccc(O)cc3[n+]2C)[Te]c2ccc(O)cc21` [R=M, X=Te, Z1=5-OH, R2=H, Z2=5-OH], under setting [1], the CV/CX is recorded as 7.6.

`CCN1/C(=C/C(C)=C/c2[te]c3ccc(C)cc3[n+]2CC)Sc2ccccc21` [R=E, X=S, Z1=5-Me, R2=Me, Z2=H] came in with a CX (Table XVII, benzotellurazole derivatives) of 0.03. Further, the CV/CX under setting [1] is on record as 26.6. Take `CN1/C(=C/C(=C/c2sc3ccc4ccccc4c3[n+]2C)c2ccccc2)Oc2ccc3ccccc3c21` [drawing 40|M|Ph]: the “CX (IC50 in the CX-1 cell line)” value was determined as 0.03 mg/L and the “CV/CX (selectivity, kill ratio)” value stood at 10.0. With `CCN1/C(=C/C=C/c2sc3ccc(C#N)cc3[n+]2CC)Oc2ccccc21` [drawing 44|E|5-CN|H], the “CV/CX (selectivity, kill ratio)” value was greater than 13.3.

With `CCN1/C(=C/C=C/c2oc3c(-c4ccccc4)cccc3[n+]2CC)Oc2c(-c3ccccc3)cccc21` [drawing 45|7-Ph|7-Ph], the “CX (IC50 in the CX-1 cell line)” value was determined as 0.16 mg/L and the “CV/CX (selectivity, kill ratio)” value is 5.0.

For the molecule `CCN1C(=CC=c2sc(=Cc3sc4c([n+]3CC)CCCC4)n(CC)c2=O)Oc2ccccc21.[I-]` (mixture of isomers) [Dye D-170], the “CV/CX (selectivity, kill ratio)” value worked out at 100.0. As for `CCN1C(=CC=Cc2sc3ccc(OC)cc3[n+]2CC)Sc2ccccc21` [drawing 41|Et|5-MeO|H], the “CV/CX (selectivity, kill ratio)” value was 40.0. Molecule `CC[n+]1c(/C=C/C=C2\[Te]c3ccc4ccccc4c3N2C)sc2ccccc21` [naphtho/1,2/tellurazole] registered a CX (Table XVI, unsymmetrical dyes) of 0.10. For the same molecule, the CV/CX (Table XVI, selectivity ratio of IC50 values) is recorded as 3.0.

`CCN1/C(=C\C=C\c2sc3ccc4ccccc4c3[n+]2CC)Oc2ccc3ccccc3c21` [drawing 40|E|H]: the “CX (IC50 in the CX-1 cell line)” value amounted to 0.3 mg/L and the “CV/CX (selectivity, kill ratio)” value is 6.7. On the same counts, the results for `COc1ccc2ccc3c(c2c1)N(C)/C(=C/C=C/c1sc2ccc4ccc(OC)cc4c2[n+]1C)S3` [drawing 43|M|8-MeO|8-MeO] are 0.02 mg/L and 40.0.

On to `CCN1/C(=C/C=C/c2sc3ccc4ccccc4c3[n+]2CC)Sc2ccc3ccccc3c21` [drawing 43|E|H|H], for which the “CX (IC50 in the CX-1 cell line)” value is 0.3 mg/L and the “CV/CX (selectivity, kill ratio)” value is listed as 6.7.

On to `CCN1/C(=C/C=C/c2sc3c(N(C)C)cc(Cl)cc3[n+]2CC)Sc2ccccc21` [drawing 41|Et|5-Cl, 7-N(Me)2|H], for which the “CX (IC50 in the CX-1 cell line)” value is 0.03 mg/L and the “CV/CX (selectivity, kill ratio)” value was found to be 6.7. Take `CCN1/C(=C/C=C/c2sc3cc(Cl)ccc3[n+]2CC)Sc2cc(Cl)ccc21.[I-]` [Dye D-164]: the “CV/CX (selectivity, kill ratio)” value came out at 112.5. On the same count and under the same terms, with `CCN1/C(=C/C=C(\O)c2sc3ccccc3[n+]2CC)Oc2ccccc21` [drawing 39|E|OH|H] the figure was 10.0. For the molecule `CCN1/C(=C/C=C/c2oc3ccc(-c4ccccc4)cc3[n+]2CCNC(C)=O)Sc2ccc(OC)cc21.F[B-](F)(F)F` [Dye D-154], the “CX (IC50 in the CX-1 cell line)” value is 0.05 mg/L and the “CV/CX (selectivity, kill ratio)” value was determined as 160. As to `CCN1/C(=C/C=C/c2sc3cc(C)c(C)cc3[n+]2CC)Oc2ccccc21` [drawing 44|E|5,6-Me|H], the “CV/CX (selectivity, kill ratio)” value was greater than 20.0. Turning to `CCN1/C(=C/C=C/c2oc3cc4c(cc3[n+]2CC)OCO4)Oc2cc3c(cc21)OCO3` [drawing 45|5,6-OCO—|5,6-OCO—], the “CX (IC50 in the CX-1 cell line)” value was found to be 0.08 mg/L and the “CV/CX (selectivity, kill ratio)” value is on record as 5.0. The matching figures for `CCN1C(=CC=Cc2[te]c3ccccc3[n+]2CC)[Te]c2ccccc21` [drawing 46|Te|Te|H|H]: 0.30 mg/L and 16.7. For the molecule `CCN1/C(=C/C=C/c2sc3ccccc3[n+]2CC)Oc2cc(C)c(C)cc21` [drawing 44|E|H|5,6-Me], the “CV/CX (selectivity, kill ratio)” value was greater than 20.0. Turning to `CCN(CC)C(=O)C[n+]1c(/C=C/C=C2\Oc3ccccc3N2CC)sc2ccccc21` [drawing 37|Cc(═0)N(Et)2|Et], the “CX (IC50 in the CX-1 cell line)” value was 0.3 mg/L and the “CV/CX (selectivity, kill ratio)” value is given as greater than 33.3. On the same counts, the results for `CSCCN1/C(=C\C=C\c2sc3ccccc3[n+]2CCSC)Sc2ccccc21` [drawing 36|CCSMe|CCSMe] are 0.015 mg/L and 12. On the same counts, the results for `CCN1/C(=C\C=C\c2oc3ccc(C(F)(F)F)cc3[n+]2CC)Oc2ccc(C(F)(F)F)cc21` [drawing 45|5-CF3|5-CF3] are “>.32 mg/L” and 10.0.

As for `CC(=Cc1sc2ccccc2[n+]1C)C=C1Sc2ccccc2N1C` [drawing 38|M|H|Me|H], the “CX (IC50 in the CX-1 cell line)” value came out at 0.02 mg/L and the “CV/CX (selectivity, kill ratio)” value was determined as 5.0. `CCN1/C(=C/C=C/c2sc3ccccc3[n+]2CCC=NNS(=O)(=O)c2ccc(C)cc2)Oc2ccccc21` [drawing 37|CCC═NNSO2Ph-4C|Et]: the “CX (IC50 in the CX-1 cell line)” value came out at 0.3 mg/L and the “CV/CX (selectivity, kill ratio)” value is listed as 33.3.
